Experimental data taken from PubChem BioAssay (NCI).
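Step 1: Grow cells in 96-well plates. Step 2: Expose to compound for 48 hours at 5 concentrations. Step 3: Interpolate endpoints linearly; if unreached, use highest concentration. GI50 is the concentration that inhibits growth by half. Definition used: TGI = concentration required for complete inhibition of growth.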

Assays:
Assay in all cases: inhibition of tumour cell growth, NCI panel, 48 h
[1] = system: 786-0 renal
[2] = system: A498 renal
[3] = system: A549 NSCLC
[4] = system: ACHN renal
[5] = system: BT-549 breast
[6] = system: CAKI-1 renal
[7] = system: CCRF-CEM leukemia
[8] = system: COLO 205 colon
[9] = system: DU-145 prostate
[10] = system: EKVX NSCLC
[11] = system: HCC-2998 colon
[12] = system: HCT-116 colon
[13] = system: HCT-15 colon
[14] = system: HL-60(TB) leukemia
[15] = system: HOP-62 NSCLC
[16] = system: HOP-92 NSCLC
[17] = system: HS 578T breast
[18] = system: HT29 colon
[19] = system: IGROV1 ovarian
[20] = system: K-562 leukemia
[21] = system: KM12 colon
[22] = system: LOX IMVI melanoma
[23] = system: M14 melanoma
[24] = system: MALME-3M melanoma
[25] = system: MCF7 breast
[26] = system: MDA-MB-231 breast
[27] = system: MDA-MB-435
[28] = system: MOLT-4 leukemia
[29] = system: NCI-H226 lung
[30] = system: NCI-H23 lung
[31] = system: NCI-H460 lung
[32] = system: NCI-H522 lung
[33] = system: NCI/ADR-RES ovarian
[34] = system: OVCAR-3 ovarian
[35] = system: OVCAR-4 ovarian
[36] = system: OVCAR-5 ovarian
[37] = system: OVCAR-8 ovarian
[38] = system: PC-3 prostate
[39] = system: RPMI-8226 leukemia
[40] = system: RXF 393 renal
[41] = system: SF-268 CNS
[42] = system: SF-295 CNS
[43] = system: SF-539 CNS
[44] = system: SK-MEL-2 melanoma
[45] = system: SK-MEL-28 melanoma
[46] = system: SK-MEL-5 melanoma
[47] = system: SK-OV-3 ovarian
[48] = system: SN12C renal
[49] = system: SNB-19 CNS
[50] = system: SNB-75 CNS
[51] = system: SR leukemia
[52] = system: SW-620 colon
[53] = system: T-47D breast
[54] = system: TK-10 renal
[55] = system: U251 CNS
[56] = system: UACC-257 melanoma
[57] = system: UACC-62 melanoma
[58] = system: UO-31 renal

## Oc1c(CNCCNCc2cc(Cl)cc(Cc3ccccc3)c2O)cc(Cl)cc1Cc1ccccc1
[1]
  GI50: 375 nM
  TGI: 10400 nM
[2]
  GI50: 1220 nM
  TGI: 8880 nM
[3]
  GI50: 469 nM
  TGI: > 100000 nM
[4]
  GI50: 127 nM
  TGI: 11800 nM
[5]
  GI50: 4260 nM
  TGI: 28000 nM
[6]
  GI50: 338 nM
  TGI: 18700 nM
[7]
  GI50: 127 nM
  TGI: 24400 nM
[8]
  GI50: 309 nM
  TGI: 1530 nM
[9]
  GI50: 303 nM
  TGI: 57100 nM
[10]
  GI50: 193 nM
  TGI: > 100000 nM
[11]
  GI50: 451 nM
  TGI: 10100 nM
[12]
  GI50: 398 nM
  TGI: 13200 nM
[13]
  GI50: 139 nM
  TGI: 14900 nM
[14]
  GI50: 430 nM
  TGI: 9840 nM
[15]
  GI50: 307 nM
  TGI: 47300 nM
[16]
  GI50: 2680 nM
  TGI: 23900 nM
[17]
  GI50: 3910 nM
  TGI: 59300 nM
[18]
  GI50: 668 nM
  TGI: 20000 nM
[19]
  GI50: 475 nM
  TGI: 16300 nM
[20]
  GI50: 391 nM
  TGI: 27200 nM
[21]
  GI50: 340 nM
  TGI: 15200 nM
[22]
  GI50: 136 nM
  TGI: 1660 nM
[23]
  GI50: 316 nM
  TGI: 10700 nM
[24]
  GI50: 600 nM
  TGI: 7600 nM
[25]
  GI50: 291 nM
  TGI: 47700 nM
[26]
  GI50: 730 nM
  TGI: 25000 nM
[27]
  GI50: 435 nM
  TGI: 13200 nM
[28]
  GI50: 342 nM
  TGI: > 100000 nM
[29]
  GI50: 438 nM
  TGI: 15500 nM
[30]
  GI50: 668 nM
  TGI: 17600 nM
[31]
  GI50: 331 nM
  TGI: 12200 nM
[32]
  GI50: 546 nM
  TGI: 25600 nM
[33]
  GI50: 364 nM
  TGI: 18300 nM
[34]
  GI50: 428 nM
  TGI: 31100 nM
[35]
  GI50: 80.6 nM
  TGI: > 100000 nM
[36]
  GI50: 1200 nM
  TGI: > 100000 nM
[37]
  GI50: 474 nM
  TGI: > 100000 nM
[38]
  GI50: 620 nM
  TGI: > 100000 nM
[39]
  GI50: 695 nM
  TGI: 6390 nM
[40]
  GI50: 414 nM
  TGI: 3970 nM
[41]
  GI50: 224 nM
  TGI: > 100000 nM
[42]
  GI50: 448 nM
  TGI: 4100 nM
[43]
  GI50: 314 nM
  TGI: 3930 nM
[44]
  GI50: 1820 nM
  TGI: 23900 nM
[45]
  GI50: 478 nM
  TGI: 30700 nM
[46]
  GI50: 302 nM
  TGI: 1910 nM
[47]
  GI50: 462 nM
  TGI: > 100000 nM
[48]
  GI50: 483 nM
  TGI: 19400 nM
[49]
  GI50: 701 nM
  TGI: > 100000 nM
[50]
  GI50: 1650 nM
  TGI: 50200 nM
[51]
  GI50: 376 nM
  TGI: > 100000 nM
[52]
  GI50: 472 nM
  TGI: 30700 nM
[53]
  GI50: 391 nM
  TGI: 37900 nM
[54]
  GI50: 228 nM
  TGI: > 100000 nM
[55]
  GI50: 297 nM
  TGI: 14400 nM
[56]
  GI50: 2120 nM
  TGI: 16600 nM
[57]
  GI50: 436 nM
  TGI: 10900 nM
[58]
  GI50: 128 nM
  TGI: 1340 nM
